Tested on: rats with diabetic nephropathy
Assay: Diabetic nephropathy in rats (left nephrectomy + streptozocin)
Type: in vivo, Sprague Dawley rats
Details: for creatinine: serum
Experimental: After 1 week-long acclimation period, animals were anaesthetised with 10% chloral hydrate (0.35 mL/100 g, i.p.) and nephrectomy was exercised to the left kidney. One week later, a single dose of 1% of streptozocin solution was i.v. injected to all animals at 60 mg/kg. After 72h, blood was collected from eyepit to test blood glucose level with the above-mentioned kit. The model was considered successful when blood glucose level >16.7 mmol/L. When the model is established, 130 rats were randomly divided into 13 groups, with 10 animals in each group, namely, a normal control group, a model group, benzanapril p.o. Group at 10 mg/kg, RA i.v. groups at 2.5 mg/kg, 5 mg/kg, 25 mg/kg, 75 mg/kg, and 150 mg/kg of RA, and RA p.o. groups at 5 mg/kg, 10 mg/kg, 50 mg/kg, 150 mg/kg, and 300 mg/kg of RA. The drugs were administered once every day. Blood was collected from eyepit at week 8 and week 16 to determine serum levels of creatinine and urea nitrogen. Urinary protein excretion within 24 hours was also studied. The animals were sacrificed 24 hours after the last dose and kidney removed for histopathological examination.

## O=C(/C=C/c1ccc(O)c(O)c1)O[C@H](Cc1ccc(O)c(O)c1)C(=O)O [RA, R(+)2-{[3-(3,4-dihydroxylphenyl-(oxo-2-propenyl)oxy]3,4-dihydroxylphenylpropionic acid]}]
8 weeks, p.o. 10 mg/kg
  Blood glucose: 20.87 ± 6.55 mmol/L
  Serum urea nitrogen: 17.57 ± 2.70 mg/dL
  creatinine: 0.88 ± 0.15 mg/dL
8 weeks, p.o. 50 mg/kg
  24 h urinary protein excretion: 17.89 ± 2.64 mg/24 h
  Blood glucose: 21.07 ± 5.46 mmol/L
  Serum urea nitrogen: 15.96 ± 1.95 mg/dL
  creatinine: 0.77 ± 0.13 mg/dL
8 weeks, p.o. 150 mg/kg
  24 h urinary protein excretion: 17.18 ± 2.56 mg/24 h
  Blood glucose: 21.32 ± 6.44 mmol/L
  Serum urea nitrogen: 14.76 ± 2.65 mg/dL
  creatinine: 0.75 ± 0.12 mg/dL
8 weeks, p.o. 300 mg/kg
  24 h urinary protein excretion: 16.89 ± 2.75 mg/24 h
  Blood glucose: 20.97 ± 5.54 mmol/L
  Serum urea nitrogen: 14.42 ± 2.90 mg/dL
  creatinine: 1.40 ± 0.28 mg/dL
16 weeks, i.v. 2.5 mg/kg
  24 h urinary protein excretion: 60.96 ± 6.85 mg/24 h
  Blood glucose: 22.02 ± 5.34 mmol/L
  Serum urea nitrogen: 33.91 ± 3.60 mg/dL
  creatinine: 1.60 ± 0.18 mg/dL
16 weeks, i.v. 5 mg/kg
  24 h urinary protein excretion: 57.28 ± 8.46 mg/24 h
  Blood glucose: 22.15 ± 4.24 mmol/L
  Serum urea nitrogen: 30.42 ± 7.36 mg/dL
  creatinine: 1.52 ± 0.37 mg/dL
16 weeks, i.v. 25 mg/kg
  24 h urinary protein excretion: 55.34 ± 7.67 mg/24 h
  Blood glucose: 22.03 ± 4.59 mmol/L
  Serum urea nitrogen: 26.76 ± 4.19 mg/dL
  creatinine: 1.32 ± 0.28 mg/dL
16 weeks, i.v. 75 mg/kg
  24 h urinary protein excretion: 54.78 ± 7.96 mg/24 h
  Blood glucose: 22.35 ± 7.28 mmol/L
  Serum urea nitrogen: 23.07 ± 3.95 mg/dL
  creatinine: 1.26 ± 0.28 mg/dL
16 weeks, i.v. 150 mg/kg
  24 h urinary protein excretion: 54.28 ± 7.46 mg/24 h
  Blood glucose: 22.23 ± 6.24 mmol/L
  Serum urea nitrogen: 22.57 ± 3.45 mg/dL
  creatinine: 1.20 ± 0.22 mg/dL
16 weeks, p.o. 5 mg/kg
  24 h urinary protein excretion: 65.55 ± 8.71 mg/24 h
  Blood glucose: 22.23 ± 5.66 mmol/L
  Serum urea nitrogen: 39.37 ± 3.85 mg/dL
  creatinine: 1.97 ± 0.19 mg/dL
16 weeks, p.o. 10 mg/kg
  24 h urinary protein excretion: 61.33 ± 6.65 mg/24 h
  Blood glucose: 21.87 ± 5.55 mmol/L
  Serum urea nitrogen: 38.37 ± 3.85 mg/dL
  creatinine: 1.92 ± 0.19 mg/dL
16 weeks, p.o. 50 mg/kg
  24 h urinary protein excretion: 57.28 ± 8.46 mg/24 h
  Blood glucose: 22.07 ± 4.46 mmol/L
  Serum urea nitrogen: 34.57 ± 5.60 mg/dL
  creatinine: 1.77 ± 0.28 mg/dL
16 weeks, p.o. 150 mg/kg
  24 h urinary protein excretion: 56.28 ± 8.76 mg/24 h
  Blood glucose: 21.32 ± 6.34 mmol/L
  Serum urea nitrogen: 28.96 ± 3.95 mg/dL
  creatinine: 1.53 ± 0.28 mg/dL
16 weeks, p.o. 300 mg/kg
  24 h urinary protein excretion: 55.78 ± 9.46 mg/24 h
  Blood glucose: 21.97 ± 5.34 mmol/L
  Serum urea nitrogen: 27.76 ± 5.30 mg/dL
  creatinine: 1.50 ± 0.26 mg/dL
RA treated groups vs model group
  kidney pathological examination: fewer lesions than the model group in a dose-dependent manner
8 weeks, i.v. 2.5 mg/kg
  creatinine: 0.91 ± 0.12 mg/dL
8 weeks, i.v. 5 mg/kg
  creatinine: 0.90 ± 0.09 mg/dL
8 weeks, i.v. 25 mg/kg
  creatinine: 0.75 ± 0.18 mg/dL
8 weeks, i.v. 75 mg/kg
  creatinine: 0.72 ± 0.15 mg/dL
8 weeks, i.v. 150 mg/kg
  creatinine: 0.69 ± 0.11 mg/dL
8 weeks, p.o. 5 mg/kg
  creatinine: 0.96 ± 0.09 mg/dL
Week 8 and week 16, i.v. 2.5, 5, 25, 75, 150 mg/kg, p.o. 5, 10, 50, 150, 300 mg/kg
  serum creatinine, urea nitrogen, 24-hour urinary protein excretion: can all significantly reduce serum creatinine and urea nitrogen levels as well as 24-hour urinary protein excretion

— US20100130604A1, “USE OF ROSMARINIC ACID IN MANUFACTURE OF MEDICAMENTS FOR TREATING OR PREVENTING HEPATIC AND RENAL DISEASES” (SHANGDONG LUYE NATURAL DRUG RESEARCH AND DEVELOPMENT CO., …, priority 2006, published 2010)
